Source: US6924143B2, “Method for increasing the growth rate of cells in static liquid media” (priority 2001, dated 2005)

System: U. maydis wildtype strains
Assay: Growth-assay of U. maydis strains in 384 well MTPs (FIG. 3A, absorbance at OD620)
Assay type: cell-based, Ustilago maydis
Settings: Hygromycin B 200 μg/ml, initial OD620 0,18, 1x minimal medium with 0,1% Kelzan, 30° C.
Method: FIG. 3 illustrates growth-assay of U. maydis strains in 384 well MTPs. • A: The kinetik of the absorbance at OD620 for U. maydis wildtype strains was determined in a 384 well MTP using a Tecan ultra reader (rombus). As control served a strain, to which Hygromycin B was added in a concentration of 200 μg/ml (crosses). The initial OD620 for both strains was 0,18. […] GFP fluorescence of a U. maydis strain, in which GFP expression is controlled by the strong constitutive OMA promoter (squares), was determined in a Tecan plus reader. The excitation wavelength was 485 nm, the emission wavelength was 535 nm. […] Compared to lower temperatures, the increase in OD620 and the increase in fluorescence was faster. Experimental procedures: U. maydis strains where treated as described before in the Examples. The solution contained 1×minimal medium, 0,1% Kelzan and the assay was performed at 30° C. All experiments where repeated in independent duplicates.

## CN[C@H]1C[C@@H](N)[C@H](O)[C@@H](O[C@@H]2O[C@H](CO)[C@H](O)[C@@H]3OC4(O[C@H]23)O[C@H]([C@@H](N)CO)[C@H](O)[C@H](O)[C@H]4O)[C@@H]1O (stereo partly shown) [Hygromycin B]
  course of optical density (OD620) over time: continuous decrease in optical density
